# Experimental data from patent publication US11484561B2, “Morus extracts rich in N-acids of imino sugars and or pipecolic acids” (Phynova Limited, priority 2011, dated 2022).
# Tests used:
# glycogen phosphorylase = assay: Glycogen phosphorylase assay; format: biochemical; details: words, no concentration
# α-D-glucosidase (Yeast) = molecular target: T1, α-D-glucosidase (Yeast) (Saccharomyces cerevisiae, UniProt P53341); details: typical DNJ inhibitory activity shown for reference, in words; cited from earlier work
# T1 construct: purchased Sigma-Aldrich
# [1] = tested on: α-D-glucosidase (Bacillus); details: typical DNJ inhibitory activity shown for reference, in words; cited from earlier work
# α-D-glucosidase (rice) = molecular target: T2, α-D-glucosidase (rice) (Oryza sativa subsp. japonica, UniProt Q653V7); details: typical DNJ inhibitory activity shown for reference, in words; cited from earlier work
# T2 construct: purchased Sigma-Aldrich
# [2] = molecular target: T3, α-D-galactosidase (green coffee bean) (Coffea arabica, UniProt Q42656); details: typical DNJ inhibitory activity shown for reference, in words; cited from earlier work
# T3 construct: purchased Sigma-Aldrich
# [3] = molecular target: T4, β-D-galactosidase (bovine) (Bos taurus, UniProt Q58D55); design: key: NI = no inhibition; details: typical DNJ inhibitory activity shown for reference, in words; cited from earlier work
# T4 construct: purchased Sigma-Aldrich
# T4 sequence (Q58D55 28-653): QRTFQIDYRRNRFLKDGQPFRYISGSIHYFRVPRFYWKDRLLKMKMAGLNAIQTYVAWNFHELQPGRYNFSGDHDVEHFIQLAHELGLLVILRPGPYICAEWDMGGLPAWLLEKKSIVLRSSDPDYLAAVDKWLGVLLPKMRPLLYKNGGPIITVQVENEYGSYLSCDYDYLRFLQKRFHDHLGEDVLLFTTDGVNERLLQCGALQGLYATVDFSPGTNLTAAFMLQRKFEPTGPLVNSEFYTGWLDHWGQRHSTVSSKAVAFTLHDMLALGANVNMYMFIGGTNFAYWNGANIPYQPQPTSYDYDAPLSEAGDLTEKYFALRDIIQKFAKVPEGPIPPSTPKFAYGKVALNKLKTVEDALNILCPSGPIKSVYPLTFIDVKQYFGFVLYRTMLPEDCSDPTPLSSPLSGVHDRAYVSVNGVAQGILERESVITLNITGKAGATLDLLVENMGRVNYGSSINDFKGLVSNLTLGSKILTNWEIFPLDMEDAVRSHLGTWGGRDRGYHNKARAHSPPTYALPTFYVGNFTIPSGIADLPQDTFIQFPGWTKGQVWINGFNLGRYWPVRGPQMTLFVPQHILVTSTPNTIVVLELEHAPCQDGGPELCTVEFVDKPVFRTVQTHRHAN
# [4] = tested on: β-D-mannosidase Cellulomonas fimi; design: key: NI = no inhibition; details: typical DNJ inhibitory activity shown for reference, in words; cited from earlier work
# [5] = tested on: naringinase (P. decumbens); design: key: NI = no inhibition; details: typical DNJ inhibitory activity shown for reference, in words; cited from earlier work
# [6] = tested on: N-acetyl-β-D-gluc (Jack bean); design: key: NI = no inhibition; details: typical DNJ inhibitory activity shown for reference, in words; cited from earlier work
# [7] = molecular target: T5, β-glucuronidase (bovine liver) (Bos taurus, UniProt A3KMY8); design: key: NI = no inhibition; details: typical DNJ inhibitory activity shown for reference, in words; cited from earlier work
# T5 construct: purchased Sigma-Aldrich; host or cells: bovine liver
# T5 sequence (A3KMY8 1-652): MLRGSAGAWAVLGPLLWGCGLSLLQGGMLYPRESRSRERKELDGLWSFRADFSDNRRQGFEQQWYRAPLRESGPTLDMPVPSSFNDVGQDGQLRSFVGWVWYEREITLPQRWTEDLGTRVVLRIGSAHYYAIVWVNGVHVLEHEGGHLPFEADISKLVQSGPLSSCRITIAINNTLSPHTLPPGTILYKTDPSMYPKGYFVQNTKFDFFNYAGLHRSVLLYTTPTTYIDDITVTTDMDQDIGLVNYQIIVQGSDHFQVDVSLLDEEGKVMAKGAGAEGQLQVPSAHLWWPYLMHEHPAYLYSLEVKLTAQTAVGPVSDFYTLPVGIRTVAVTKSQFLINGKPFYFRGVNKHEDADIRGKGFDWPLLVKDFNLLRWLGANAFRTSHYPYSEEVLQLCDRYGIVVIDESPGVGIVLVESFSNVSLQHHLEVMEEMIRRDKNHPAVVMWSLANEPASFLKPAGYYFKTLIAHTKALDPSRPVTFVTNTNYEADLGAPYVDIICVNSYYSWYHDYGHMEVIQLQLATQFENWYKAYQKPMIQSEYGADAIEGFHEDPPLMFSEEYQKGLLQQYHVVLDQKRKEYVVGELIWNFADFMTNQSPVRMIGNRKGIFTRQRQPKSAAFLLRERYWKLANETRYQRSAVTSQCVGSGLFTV
# T2 sequence (Q653V7 34-885): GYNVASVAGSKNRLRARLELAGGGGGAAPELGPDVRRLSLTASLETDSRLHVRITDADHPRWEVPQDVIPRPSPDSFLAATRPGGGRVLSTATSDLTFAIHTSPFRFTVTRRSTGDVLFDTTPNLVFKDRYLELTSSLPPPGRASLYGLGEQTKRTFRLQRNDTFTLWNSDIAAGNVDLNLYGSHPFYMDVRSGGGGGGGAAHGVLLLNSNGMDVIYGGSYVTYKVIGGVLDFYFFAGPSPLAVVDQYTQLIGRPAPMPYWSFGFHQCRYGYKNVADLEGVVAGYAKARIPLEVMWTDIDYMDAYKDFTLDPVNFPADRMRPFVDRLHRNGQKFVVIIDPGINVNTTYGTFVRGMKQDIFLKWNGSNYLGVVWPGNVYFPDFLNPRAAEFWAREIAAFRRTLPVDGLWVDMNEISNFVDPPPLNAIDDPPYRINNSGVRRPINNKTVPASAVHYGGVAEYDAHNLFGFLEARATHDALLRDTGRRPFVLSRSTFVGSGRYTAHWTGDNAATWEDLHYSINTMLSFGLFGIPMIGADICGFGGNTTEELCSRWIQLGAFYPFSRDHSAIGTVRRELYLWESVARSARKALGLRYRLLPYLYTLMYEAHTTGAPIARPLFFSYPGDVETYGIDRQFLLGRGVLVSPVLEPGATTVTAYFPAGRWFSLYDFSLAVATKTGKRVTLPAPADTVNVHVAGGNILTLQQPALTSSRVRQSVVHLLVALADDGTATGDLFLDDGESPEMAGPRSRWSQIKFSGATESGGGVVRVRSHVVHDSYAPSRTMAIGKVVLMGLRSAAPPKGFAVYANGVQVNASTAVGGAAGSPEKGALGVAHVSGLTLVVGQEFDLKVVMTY
# T3 sequence (Q42656 16-378): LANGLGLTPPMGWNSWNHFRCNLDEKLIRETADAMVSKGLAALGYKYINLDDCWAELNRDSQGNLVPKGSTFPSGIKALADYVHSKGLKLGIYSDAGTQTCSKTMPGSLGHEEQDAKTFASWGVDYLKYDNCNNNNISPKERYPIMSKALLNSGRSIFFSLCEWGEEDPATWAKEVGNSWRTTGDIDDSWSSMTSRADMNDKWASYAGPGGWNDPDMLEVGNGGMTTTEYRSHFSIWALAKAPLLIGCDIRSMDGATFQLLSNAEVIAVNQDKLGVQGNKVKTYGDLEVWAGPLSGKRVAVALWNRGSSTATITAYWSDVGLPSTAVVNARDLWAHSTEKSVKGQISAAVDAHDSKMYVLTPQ
# T1 sequence (P53341 whole entry): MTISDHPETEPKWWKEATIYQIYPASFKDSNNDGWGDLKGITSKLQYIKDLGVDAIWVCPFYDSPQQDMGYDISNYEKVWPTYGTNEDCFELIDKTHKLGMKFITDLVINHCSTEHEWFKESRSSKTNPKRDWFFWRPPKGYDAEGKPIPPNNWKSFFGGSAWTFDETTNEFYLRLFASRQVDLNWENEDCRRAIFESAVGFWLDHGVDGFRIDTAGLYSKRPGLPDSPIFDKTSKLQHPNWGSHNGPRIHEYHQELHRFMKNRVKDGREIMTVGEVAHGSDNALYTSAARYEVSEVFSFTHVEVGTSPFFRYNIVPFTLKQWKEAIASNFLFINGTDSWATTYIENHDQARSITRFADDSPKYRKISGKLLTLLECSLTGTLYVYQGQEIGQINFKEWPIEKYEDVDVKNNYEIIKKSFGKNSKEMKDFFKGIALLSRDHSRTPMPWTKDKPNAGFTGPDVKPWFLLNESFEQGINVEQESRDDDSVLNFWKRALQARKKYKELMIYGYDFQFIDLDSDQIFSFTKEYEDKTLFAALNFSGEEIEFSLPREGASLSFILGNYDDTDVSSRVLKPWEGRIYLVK
compound,measurement,setting,value
"OC[C@H]1NC[C@H](O)[C@@H](O)[C@@H]1O [DNJ, 1 deoxynojirmycin]",glycogen phosphorylase inhibition,glycogen phosphorylase,do not inhibit
same,"α-D-glu Yeast, typical DNJ inhibitory activity",α-D-glucosidase (Yeast),weak
same,"α-D-glu Bacillus, typical DNJ inhibitory activity",[1],potent
same,"α-D-glu rice, typical DNJ inhibitory activity",α-D-glucosidase (rice),potent
same,"α-D-gal green coffee bean, typical DNJ inhibitory activity",[2],weak
same,"β-D-gal bovine, typical DNJ inhibitory activity",[3],NI
same,"β-D-man Cellulomonas, typical DNJ inhibitory activity",[4],NI
same,"naringinase Penecillium, typical DNJ inhibitory activity",[5],NI
same,"N-acetyl-β-D-gluc (Jack bean), typical DNJ inhibitory activity",[6],NI
same,"β-glucuronidase (bovine liver), typical DNJ inhibitory activity",[7],NI
